Results reported in publication PMC7769672, “Skin-Related Properties and Constituents from the Aerial Parts Extract of Persicaria senticosa” (Oxidative Medicine and Cellular Longevity, 2020).
“And” between values parts separate entries of the source, which are not always exact repeats. Equal values may be shown once. Read-outs that look alike come from different tables or passages of the source.

Assays:
mushroom tyrosinase = assay: Tyrosinase inhibition assay; assay type: biochemical; conditions: for IC50: Table 3, isolated compounds
Method: Tyrosinase inhibitory activity was measured by using the method described by Yagi et al.. The reaction was carried out in 0.1 M potassium phosphate buffer (pH 6.5) containing 1.5 mM L-tyrosine and 1250 units/mL mushroom tyrosinase. The reaction mixture was incubated at 37°C for 20 min. The test samples were assayed for tyrosinase inhibition by measuring its effect on tyrosinase activity using SpectraMax 190PC microplate ELISA reader at 490 nm.

RAW 264.7 cells [1] = assay: Cell cytotoxicity assay (MTT); assay type: cell-based, murine; conditions: Mus musculus, RAW264.7
Method: RAW 264.7 cells were plated at a density of 5 × 10^4 cells/well in 96-well plates. Cells were treated with samples for 1 h prior to LPS (1 μg/mL) stimulation for 24 h. MTT (5 mg/mL in PBS) was added to each well and incubated for 2 hr. The medium was removed from the wells by aspiration, DMSO was added to each well, and the plate was shaken. The absorbance of each well was measured at a wavelength of 540 nm using an ELISA reader. Data are presented as the mean ± standard deviation of three replicates.

RAW 264.7 cells [2] = assay: NO assay (nitrite by Griess reagent in LPS-stimulated cells); assay type: cell-based, murine
Method: RAW 264.7 cells were seeded in 96-well plates (5 × 10^4 cells/well) and were treated with sample for 1 h prior to LPS (1 μg/mL) stimulation for 24 h. The negative control was treated with serum-free media. The amount of nitrite, a stable metabolite of NO, was measured by using Griess reagent (1% sulfanilamide and 0.1% naphthylethylenediamine dihydrochloride in 2.5% phosphoric acid). Absorbance was subsequently measured at 540 nm using an ELISA reader. The quantity of nitrite was determined from a standard curve for sodium nitrite.

elastase = elastase (Sus scrofa, UniProt P00772); assay: Elastase inhibition assay; assay type: biochemical
Method: The reaction was carried out in 0.5 mM Tris buffer (pH 8.5) containing 1 mg/mL N-succinyl-(Ala)3-p-nitroanilide and 0.6 unit/mL elastase. The reaction mixture was incubated at 25°C for 10 min. The test samples were assayed for elastase inhibition by measuring its effect on elastase activity using an ELISA reader at 405 nm. Ursolic acid was used as a positive control, and the IC50 value of the sample was determined.

[3] = DPPH radical scavenging activity assay; conditions: for DPPH radical scavenging activity (in words): Figure 4; for IC50: Table 3, isolated compounds
Method: DPPH radical scavenging activity was measured by using the method described by Blois and Ozgen et al.. DPPH solution dissolved in methanol was added to the sample, which was diluted to the required concentration, and the reaction was carried out at room temperature for 30 min. Absorbance was measured at 517 nm using an ELISA reader. The antioxidant butylated hydroxyanisole (BHA) was used as a positive control, and the IC50 value of the sample was determined.

[4] = ABTS radical scavenging activity
Method: ABTS radical scavenging activity was measured by using a previously described method. ABTS+ was formed by mixing 7 mM ABTS solution and 2.45 mM potassium persulfate (K2S2O8) solution with ABTS: K2S2O8 (2 : 1 ratio) for 12–16 h to form a cation (ABTS^+). The absorbance was measured at 734 nm using an ELISA reader. BHA, an antioxidant, was used as the positive control.

[5] = Table 3, isolated compounds, read-out: MTT assay IC50
[6] = Mus musculus, RAW264.7, Table 3, isolated compounds, read-out: NO assay IC50
[7] = Table 3, isolated compounds, read-out: Elastase inhibition assay IC50

elastase, sequence (P00772 27-266): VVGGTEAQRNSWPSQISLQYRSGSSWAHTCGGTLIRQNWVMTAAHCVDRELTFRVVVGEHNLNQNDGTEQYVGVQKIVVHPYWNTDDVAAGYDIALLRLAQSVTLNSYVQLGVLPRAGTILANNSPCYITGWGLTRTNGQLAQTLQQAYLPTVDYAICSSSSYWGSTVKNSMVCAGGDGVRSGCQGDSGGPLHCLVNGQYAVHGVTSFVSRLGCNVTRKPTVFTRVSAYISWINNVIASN

| Structure (SMILES) | IC50 (mushroom tyrosinase) [µM] | IC50 (RAW 264.7 cells [1]; [5]) [µM] | IC50 (RAW 264.7 cells [2]; [6]) [µM] | IC50 (elastase; [7]) [µM] | IC50 [3] | other results |
| --- | --- | --- | --- | --- | --- | --- |
| COC(=O)C1OC(Oc2c(-c3ccc(O)cc3)oc3cc(O)cc(O)c3c2=O)C(O)C(O)C1O (stereo not drawn) [Compound 5, kaempferol-3-(6-methylglucuronide)] | > 100 | > 100 | > 100 | > 1000 | 37 µM | DPPH radical scavenging activity (in words) [3]: excellent antioxidant activity; IC50 ([3]; listed as Comp. 5): 36.99 ± 0.16 µM |
| COC(=O)C1OC(Oc2c(-c3ccc(O)c(O)c3)oc3cc(O)cc(O)c3c2=O)C(O)C(O)C1O (stereo not drawn) [Compound 6, quercetin-3-(6-methylglucuronide)] | > 100 | > 100 | > 100 | > 1000 | > 1000 µM |  |
| O=C(O)C1OC(Oc2c(-c3ccc(O)c(O)c3)oc3cc(O)cc(O)c3c2=O)C(O)C(O)C1O (stereo not drawn) [Compound 3, quercetin-3-O-glucuronide] | > 100 | > 100 | > 100 | > 1000 | 31.2 µM | IC50 ([3]; listed as Comp. 3): 31.2 ± 0.47 µM |
| CC1(C)C[C@H](O)C[C@@]2(C)OC(=O)C=C12 [Compound 1, loliolide] | > 100 | > 100 | > 100 | > 1000 | > 1000 µM |  |
| O=c1c(O)c(-c2ccc(O)c(O)c2)oc2cc(O)cc(O)c12 [Compound 7, quercetin] |  | > 100 | 29.7 |  | 22.7 µM | IC50 (RAW 264.7 cells [2]; Table 3, isolated compounds, listed as Comp. 7, read-out: NO assay IC50): 29.7 ± 7.07 µM; IC50 ([3]; listed as Comp. 7): 22.7 ± 0.53 µM |
| COc1ccc(O)c(C(C)(C)C)c1 [BHA, butylated hydroxyanisole, reference compound] |  |  |  |  | 272 µM | Antioxidant ABTS (IC50) ([4]; Table 1, methanol extracts, 734 nm): BHA 2.9 ± 0.1 μg/mL; Antioxidant ABTS ([4]; Table 2, fractions): BHA 4.03 ± 0.05 μg/mL; Antioxidant DPPH (IC50) ([3]; Table 1, methanol extracts, 30 min, 517 nm): BHA 15.6 ± 0.2 μg/mL; Antioxidant DPPH ([3]; Table 2, fractions): BHA 14.58 ± 0.06 μg/mL |
| [H]/N=C(/NC)NCCC[C@H](N)C(=O)O [L-NMMA, reference compound] |  | > 100 | 14.6 |  |  | IC50 (RAW 264.7 cells [1]; Table 1 positive control, read-out: Anti-inflammatory MTT, positive control): > 100 µM; IC50 (RAW 264.7 cells [2]; Mus musculus, RAW264.7, Table 2 positive control, read-out: Anti-inflammatory NO, positive control): 37.6 µM; IC50 (RAW 264.7 cells [2]; Mus musculus, RAW264.7, Table 1 positive control, read-out: Anti-inflammatory NO (IC50), positive control): 36.3 µM |
| C[C@H]1[C@H](C)CC[C@]2(C(=O)O)CC[C@]3(C)C(=CC[C@@H]4[C@@]5(C)CC[C@H](O)C(C)(C)[C@@H]5CC[C@]43C)[C@H]12 [Ursolic acid, reference compound] |  |  |  | 86.3 |  | IC50 (elastase; Table 1, methanol extracts, read-out: Anti-wrinkle Elastase assay (IC50)): 116 µM; IC50 (elastase; Table 2, fractions, unit inferred, read-out: Antiwrinkle Elastase assay): 85.3 µM |
| COc1ccc(/C=C/C(=O)OC(C(=O)O)C(O)C(=O)O)cc1O (stereo not drawn) [Compound 4, 4-methoxy caftraric acid] | > 100 | 84.6 ± 9.85 | > 100 | > 1000 | > 1000 µM |  |
| OC[C@H]1O[C@@H](Oc2ccc(O)cc2)[C@H](O)[C@@H](O)[C@@H]1O [Arbutin, reference compound] |  |  |  |  |  | Whitening Tyrosinase assay (IC50) (mushroom tyrosinase; Table 1, methanol extracts, L-tyrosine substrate): Arbutin 135.0 ± 19.9 μg/mL |
| O=c1c(O[C@@H]2O[C@H](CO)[C@@H](O)[C@H](O)[C@H]2O)c(-c2ccc(O)c(O)c2)oc2cc(O)cc(O)c12 [Compound 2, quercetin-3-O-glucoside] | > 100 | > 100 | > 100 | > 1000 | 39.6 µM and 39.4 µM | DPPH radical scavenging activity (in words) [3]: excellent antioxidant activity; IC50 ([3]; listed as Comp. 2): 39.6 ± 4.1 µM |
